Among the test systems are UO-31 renal; OVCAR-5 ovarian; EKVX NSCLC; MCF7 breast; RPMI-8226 leukemia; SN12C renal; PC-3 prostate; HCT-116 colon; MDA-MB-435; NCI-H460 lung.
What all share (assay): growth of human tumour cells (NCI), 48 h

For eleven molecules, TGI results are on record in PubChem BioAssay (NCI).

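Dose response: 5 concentrations. Exposure: 48 h. Format: 96-well plates. Endpoint: linear interpolation; highest concentration if not reached. TGI denotes the concentration required for complete inhibition of growth.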

`CCCNc1ncnc2[nH]ncc12`: the TGI in the experiment with UO-31 renal, in the experiment with OVCAR-5 ovarian, in the experiment on EKVX NSCLC, with MCF7 breast, with RPMI-8226 leukemia and in the experiment on SN12C renal was over 100 µM in each case. Moreover, the TGI with PC-3 prostate, with HCT-116 colon, in the experiment on MDA-MB-435 and with NCI-H460 lung was over 100 µM throughout.
As for `CN(C)c1ccc(/C=C2\N=C(c3ccccc3)N(c3ccc4c(c3)Sc3cc(N5C(=O)/C(=C/c6ccc(N(C)C)cc6)N=C5c5ccccc5)ccc3N4)C2=O)cc1`, the TGI came to 34.8 µM with UO-31 renal; 40.8 µM with OVCAR-5 ovarian; 74.8 µM with EKVX NSCLC; 32.4 µM in the experiment on MCF7 breast; 51.4 µM in the experiment with RPMI-8226 leukemia; 38.9 µM in the experiment with SN12C renal. Also, the TGI with PC-3 prostate came out at 34.4 µM; with HCT-116 colon, 67.6 µM; with MDA-MB-435, 58 µM; in the experiment with NCI-H460 lung it was 62.3 µM.
Consider `CN1C(=O)C(O)CC1c1cccc(C(F)(F)F)c1` (centres undefined), for which the TGI in the experiment with UO-31 renal, in the experiment with OVCAR-5 ovarian, in the experiment on EKVX NSCLC, in the experiment with MCF7 breast, in the experiment on RPMI-8226 leukemia and in the experiment on SN12C renal was over 100 µM throughout. Besides, the TGI in the experiment on PC-3 prostate, in the experiment on HCT-116 colon, in the experiment with MDA-MB-435 and in the experiment on NCI-H460 lung was over 100 µM throughout.
For `CSc1ccc(/C=C2\N=C(c3ccccc3)N(/N=C/c3cc4cc(C)ccc4nc3Cl)C2=O)cc1`, the TGI with UO-31 renal is 33.4 µM; in the experiment on OVCAR-5 ovarian it was 74.9 µM; in the experiment with EKVX NSCLC it was over 100 µM; in the experiment with MCF7 breast, 43.2 µM; with RPMI-8226 leukemia, over 100 µM; in the experiment on SN12C renal, 35.6 µM. Moreover, the TGI with PC-3 prostate is 38 µM; with HCT-116 colon, 33.2 µM; in the experiment with MDA-MB-435 it was 26.1 µM; with NCI-H460 lung, 57.7 µM.
Consider `Cc1ccccc1OC(C)C(=O)NN1C(=O)CC(=O)N(c2ccccc2)C1=S` (centres undefined), for which the TGI in the experiment on UO-31 renal, in the experiment on OVCAR-5 ovarian, in the experiment on EKVX NSCLC, in the experiment on MCF7 breast, in the experiment on RPMI-8226 leukemia and in the experiment on SN12C renal was over 100 µM throughout. The TGI with PC-3 prostate, in the experiment on HCT-116 colon, in the experiment with MDA-MB-435 and with NCI-H460 lung was over 100 µM each time.
As to `S=C(NCc1ccccc1)N/N=C/c1ccccn1`, the TGI was 21 µM in the experiment on UO-31 renal; over 100 µM with OVCAR-5 ovarian; over 100 µM in the experiment with EKVX NSCLC; over 100 µM in the experiment on MCF7 breast; 2.33 µM in the experiment with RPMI-8226 leukemia; over 100 µM in the experiment on SN12C renal. The TGI with PC-3 prostate is over 100 µM; in the experiment on HCT-116 colon, 15.4 µM; in the experiment with MDA-MB-435, over 100 µM; in the experiment on NCI-H460 lung it was over 75.6 µM.
In the case of `COc1ccc(-c2cc(C(O)C3CCCCN3)c3ccccc3n2)cc1` (centres undefined), the TGI turned out to be 8.54 µM in the experiment with UO-31 renal; 24.8 µM with OVCAR-5 ovarian; 20.2 µM in the experiment with EKVX NSCLC; 14.2 µM with MCF7 breast; 5.82 µM in the experiment with RPMI-8226 leukemia; 23.7 µM in the experiment on SN12C renal. In addition, the TGI in the experiment on PC-3 prostate came out at 16.9 µM; in the experiment on HCT-116 colon, 21.5 µM; in the experiment on MDA-MB-435 it was 15.1 µM; in the experiment on NCI-H460 lung, 10.4 µM.
On to `O=C1c2ccccc2C(=O)N1c1nc(-c2ccc(Cl)cc2)cc(N2N=C(c3ccc(Br)cc3)CC2c2ccccc2)n1` (centres undefined), for which the TGI in the experiment with EKVX NSCLC is 5.99 µM; with MCF7 breast it was 4.57 µM; with RPMI-8226 leukemia, 11.7 µM; with SN12C renal, 17.1 µM; in the experiment with PC-3 prostate, over 27.5 µM; with HCT-116 colon, over 20.5 µM. The TGI in the experiment with MDA-MB-435 is 2.62 µM; in the experiment with NCI-H460 lung, over 41.9 µM.
Turning to `Cc1nc(-c2cc3cc(Cl)ccc3oc2=O)cc2c1c(=O)oc1ccc(Cl)cc12`, the TGI with UO-31 renal, in the experiment on EKVX NSCLC, in the experiment with MCF7 breast, with RPMI-8226 leukemia, in the experiment on SN12C renal and in the experiment with PC-3 prostate was over 100 µM each time. In addition, the TGI with HCT-116 colon, with MDA-MB-435 and in the experiment with NCI-H460 lung was over 100 µM in each case.
With `Cc1nc2ccc(Cl)cc2c2c1CCN2c1ccccc1`, the TGI worked out at 23.8 µM with UO-31 renal; 68.2 µM in the experiment on EKVX NSCLC; 36 µM with MCF7 breast; 31.4 µM in the experiment with RPMI-8226 leukemia; 17.2 µM in the experiment on SN12C renal; 29.5 µM with PC-3 prostate. The TGI in the experiment with HCT-116 colon came to 17.6 µM; in the experiment with MDA-MB-435, 21.3 µM; in the experiment with NCI-H460 lung, 23.9 µM.
On to `O=[N+]([O-])c1cccnc1-n1cnc2ccccc21`, for which the TGI in the experiment on OVCAR-5 ovarian, in the experiment on EKVX NSCLC, in the experiment on MCF7 breast, with RPMI-8226 leukemia, in the experiment with PC-3 prostate and in the experiment on HCT-116 colon was over 100 µM each time. In addition, the TGI in the experiment with MDA-MB-435 and in the experiment on NCI-H460 lung was over 100 µM each time.
